Test results reported in the supplement of paper PMC11451515.

Experiments:
Settings in all cases: 48 h
NOMO1 [1] = assay: cell viability relative to DMSO control; higher = less cytotoxic
Method in brief: (§1)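 Before seeding, each leukemia line was adapted for at least four passages in each medium. NOMO1 or SEM cells (500 cells/well) and P12-Ichikawa cells (1000 cells/well) went into 1536-well plates at 5 μl, then received library compounds in DMSO by pin dosing across 11 threefold concentrations, 47 μM to 0.79 nM. Readout was CellTiter-Glo One luminescence after 48 h at 37°C, and viability is given as a per-plate percentage of DMSO wells, with cell-free wells as background.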

P12-Ichikawa [2] = assay: as above
Method in brief: as §1

SEM cells [3] = assay: as above
Method in brief: as §1

NOMO1 [4] = assay: AUC of viability dose-response curve (% viability x log10 dose units); higher = less sensitive
Method in brief: (§2)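 In 1536-well plates, leukemia cells adapted to each medium (500 or 1000 cells/well) were exposed for 48 h at 37°C to library compounds in DMSO across 11 threefold doses, 47 μM down to 0.79 nM. Viability was read by CellTiter-Glo One luminescence and normalised per plate to DMSO and cell-free wells. A four-parameter log-logistic fit over log10 doses was integrated by trapezoidal rule. This yielded the area under the curve, with over-full-viability curves scaled and quality-control failures dropped.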

P12-Ichikawa [5] = assay: as above
Method in brief: as §2

SEM cells [6] = assay: as above
Method in brief: as §2

CC(=O)SCC(Cc1ccccc1)C(=O)NCC(=O)OCc1ccccc1 (centres undefined)
cell viability [%]
Settings	NOMO1 [1]	P12-Ichikawa [2]	SEM cells [3]
HPLM + 10% dialyzed FBS, 0.000781 µM	88.4	93.4	86.1
HPLM + 10% dialyzed FBS, 0.00234 µM	85.1	92.2	79.1
HPLM + 10% dialyzed FBS, 0.00702 µM	102	103	93.3
HPLM + 10% dialyzed FBS, 0.0211 µM	104	104	96.4
HPLM + 10% dialyzed FBS, 0.0632 µM	102	103	99
HPLM + 10% dialyzed FBS, 0.19 µM	106	102	103
HPLM + 10% dialyzed FBS, 0.569 µM	107	105	105
HPLM + 10% dialyzed FBS, 1.71 µM	88.9	103	97.4
HPLM + 10% dialyzed FBS, 5.12 µM	63.9	101	108
HPLM + 10% dialyzed FBS, 15.4 µM	14.7	66.9	108
HPLM + 10% dialyzed FBS, 46.1 µM	9.71	8.75	102
RPMI 5 mM glucose + 10% FBS, 0.000781 µM	81.7	105	84.9
RPMI 5 mM glucose + 10% FBS, 0.00234 µM	82.6	93.6	77.2
RPMI 5 mM glucose + 10% FBS, 0.00702 µM	80.3	106	97.1
RPMI 5 mM glucose + 10% FBS, 0.0211 µM	93.4	102	94
RPMI 5 mM glucose + 10% FBS, 0.0632 µM	84.3	99.9	96
RPMI 5 mM glucose + 10% FBS, 0.19 µM	89.4	98.2	92.5
RPMI 5 mM glucose + 10% FBS, 0.569 µM	95.2	101	98.3
RPMI 5 mM glucose + 10% FBS, 1.71 µM	95	100	99.8
RPMI 5 mM glucose + 10% FBS, 5.12 µM	72.1	98.6	95.7
RPMI 5 mM glucose + 10% FBS, 15.4 µM	15.1	54	91.2
RPMI 5 mM glucose + 10% FBS, 46.1 µM	10.7	59.3	90.1
RPMI 5 mM glucose + 10% dialyzed FBS, 0.000781 µM	78.2	85.3	77.4
RPMI 5 mM glucose + 10% dialyzed FBS, 0.00234 µM	74.3	91.2	77.6
RPMI 5 mM glucose + 10% dialyzed FBS, 0.00702 µM	86.7	96.2	82.1
RPMI 5 mM glucose + 10% dialyzed FBS, 0.0211 µM	85.6	94.3	104
RPMI 5 mM glucose + 10% dialyzed FBS, 0.0632 µM	96.9	104	109
RPMI 5 mM glucose + 10% dialyzed FBS, 0.19 µM	98.4	95.5	104
RPMI 5 mM glucose + 10% dialyzed FBS, 0.569 µM	95.6	101	115
RPMI 5 mM glucose + 10% dialyzed FBS, 1.71 µM	76.8	103	114
RPMI 5 mM glucose + 10% dialyzed FBS, 5.12 µM	65.6	90.1	108
RPMI 5 mM glucose + 10% dialyzed FBS, 15.4 µM	13.4	34.7	116
RPMI 5 mM glucose + 10% dialyzed FBS, 46.1 µM	13.2	50.3	96.9

AUC of viability dose-response curve
Settings	NOMO1 [4]	P12-Ichikawa [5]	SEM cells [6]
HPLM + 10% dialyzed FBS	390	439	451
RPMI 5 mM glucose + 10% FBS	358	445	443
RPMI 5 mM glucose + 10% dialyzed FBS	351	418	442

CCOc1cc2c(c(F)c1OCC)C(=N)N(CC(=O)c1cc(N3CCOCC3)c(OC)c(C(C)(C)C)c1)C2
cell viability [%]
Settings	NOMO1 [1]	P12-Ichikawa [2]	SEM cells [3]
HPLM + 10% dialyzed FBS, 0.000781 µM	98.4	104	96.2
HPLM + 10% dialyzed FBS, 0.00234 µM	121	105	95.6
HPLM + 10% dialyzed FBS, 0.00702 µM	118	107	95.7
HPLM + 10% dialyzed FBS, 0.0211 µM	138	114	101
HPLM + 10% dialyzed FBS, 0.0632 µM	115	112	94
HPLM + 10% dialyzed FBS, 0.19 µM	148	111	110
HPLM + 10% dialyzed FBS, 0.569 µM	131	115	117
HPLM + 10% dialyzed FBS, 1.71 µM	125	115	108
HPLM + 10% dialyzed FBS, 5.12 µM	142	116	104
HPLM + 10% dialyzed FBS, 15.4 µM	127	118	97.8
HPLM + 10% dialyzed FBS, 46.1 µM	118	100	59.8
RPMI 5 mM glucose + 10% FBS, 0.000781 µM	109	110	110
RPMI 5 mM glucose + 10% FBS, 0.00234 µM	112	124	98.1
RPMI 5 mM glucose + 10% FBS, 0.00702 µM	104	128	93.9
RPMI 5 mM glucose + 10% FBS, 0.0211 µM	109	118	113
RPMI 5 mM glucose + 10% FBS, 0.0632 µM	130	126	111
RPMI 5 mM glucose + 10% FBS, 0.19 µM	108	132	103
RPMI 5 mM glucose + 10% FBS, 0.569 µM	123	128	114
RPMI 5 mM glucose + 10% FBS, 1.71 µM	121	127	121
RPMI 5 mM glucose + 10% FBS, 5.12 µM	122	124	108
RPMI 5 mM glucose + 10% FBS, 15.4 µM	135	131	107
RPMI 5 mM glucose + 10% FBS, 46.1 µM	126	108	52.5
RPMI 5 mM glucose + 10% dialyzed FBS, 0.000781 µM	113	108	83.9
RPMI 5 mM glucose + 10% dialyzed FBS, 0.00234 µM	122	114	105
RPMI 5 mM glucose + 10% dialyzed FBS, 0.00702 µM	121	111	99.8
RPMI 5 mM glucose + 10% dialyzed FBS, 0.0211 µM	129	118	101
RPMI 5 mM glucose + 10% dialyzed FBS, 0.0632 µM	131	125	119
RPMI 5 mM glucose + 10% dialyzed FBS, 0.19 µM	124	117	116
RPMI 5 mM glucose + 10% dialyzed FBS, 0.569 µM	124	119	117
RPMI 5 mM glucose + 10% dialyzed FBS, 1.71 µM	139	117	124
RPMI 5 mM glucose + 10% dialyzed FBS, 5.12 µM	141	113	117
RPMI 5 mM glucose + 10% dialyzed FBS, 15.4 µM	138	120	125
RPMI 5 mM glucose + 10% dialyzed FBS, 46.1 µM	130	105	74.4

AUC of viability dose-response curve
Settings	NOMO1 [4]	P12-Ichikawa [5]	SEM cells [6]
HPLM + 10% dialyzed FBS	464	465	465
RPMI 5 mM glucose + 10% FBS	435	472	464
RPMI 5 mM glucose + 10% dialyzed FBS	453	475	453

N#Cc1c(C2CCNCC2)cc(-c2c(O)cccc2OCC2CC2)nc1N
cell viability [%]
Settings	NOMO1 [1]	P12-Ichikawa [2]	SEM cells [3]
HPLM + 10% dialyzed FBS, 0.000781 µM	110	113	108
HPLM + 10% dialyzed FBS, 0.00234 µM	116	113	106
HPLM + 10% dialyzed FBS, 0.00702 µM	126	112	107
HPLM + 10% dialyzed FBS, 0.0211 µM	115	110	109
HPLM + 10% dialyzed FBS, 0.0632 µM	103	108	114
HPLM + 10% dialyzed FBS, 0.19 µM	113	108	115
HPLM + 10% dialyzed FBS, 0.569 µM	121	106	108
HPLM + 10% dialyzed FBS, 1.71 µM	104	107	108
HPLM + 10% dialyzed FBS, 5.12 µM	105	101	100
HPLM + 10% dialyzed FBS, 15.4 µM	90.1	106	77.4
HPLM + 10% dialyzed FBS, 46.1 µM	99.1	92	34.2
RPMI 5 mM glucose + 10% FBS, 0.000781 µM	102	116	103
RPMI 5 mM glucose + 10% FBS, 0.00234 µM	115	125	107
RPMI 5 mM glucose + 10% FBS, 0.00702 µM	104	123	106
RPMI 5 mM glucose + 10% FBS, 0.0211 µM	118	117	115
RPMI 5 mM glucose + 10% FBS, 0.0632 µM	111	109	121
RPMI 5 mM glucose + 10% FBS, 0.19 µM	104	97.2	110
RPMI 5 mM glucose + 10% FBS, 0.569 µM	113	108	97.3
RPMI 5 mM glucose + 10% FBS, 1.71 µM	102	105	118
RPMI 5 mM glucose + 10% FBS, 5.12 µM	93.6	105	102
RPMI 5 mM glucose + 10% FBS, 15.4 µM	88.4	106	82.8
RPMI 5 mM glucose + 10% FBS, 46.1 µM	80.9	91.3	29
RPMI 5 mM glucose + 10% dialyzed FBS, 0.000781 µM	115	114	98.7
RPMI 5 mM glucose + 10% dialyzed FBS, 0.00234 µM	101	116	108
RPMI 5 mM glucose + 10% dialyzed FBS, 0.00702 µM	117	119	104
RPMI 5 mM glucose + 10% dialyzed FBS, 0.0211 µM	116	126	104
RPMI 5 mM glucose + 10% dialyzed FBS, 0.0632 µM	111	105	106
RPMI 5 mM glucose + 10% dialyzed FBS, 0.19 µM	105	114	108
RPMI 5 mM glucose + 10% dialyzed FBS, 0.569 µM	117	111	101
RPMI 5 mM glucose + 10% dialyzed FBS, 1.71 µM	104	107	98.1
RPMI 5 mM glucose + 10% dialyzed FBS, 5.12 µM	94.2	107	85.3
RPMI 5 mM glucose + 10% dialyzed FBS, 15.4 µM	88.3	99.7	72.6
RPMI 5 mM glucose + 10% dialyzed FBS, 46.1 µM	74.4	85.9	43.7

AUC of viability dose-response curve
Settings	NOMO1 [4]	P12-Ichikawa [5]	SEM cells [6]
HPLM + 10% dialyzed FBS	455	453	441
RPMI 5 mM glucose + 10% FBS	450	430	446
RPMI 5 mM glucose + 10% dialyzed FBS	447	446	435
